Patent US10206902B2, “Mono- or di-substituted indoles as dengue viral replication inhibitors” (priority 2014, dated 2019)

What was measured:
Format in all cases: cell-based
[1] = test system: DENV-2 strain 16681; assay: Tetravalent RT-qPCR assay Protocol A, serotype 2; conditions: Dengue virus, DENV2, 72 h, RT-qPCR serotype 2 16681, Vero cells, day 3
Protocol: (§1) The antiviral activity of the compounds of the invention was tested against DENV-1 strain TC974#666 (NCPV), DENV-2 strain 16681, DENV-3 strain H87 (NCPV) and DENV-4 strains H241 (NCPV) and EDEN (SG/06K2270DK1/2005; GenBank accession number QG398256) in a RT-qPCR assay. Therefore, Vero cells were infected with either DENV-1, or -2, or -3, or -4 in the presence or absence of test compounds. At day 3 post-infection, the cells were lysed and cell lysates were used to prepare cDNA of both a viral target (the 3′UTR of DENV; table 2) and a cellular reference gene (β-actin, table 2). Subsequently, a duplex real time PCR was performed on a Lightcycler480 instrument. The generated Cp value is inversely proportional to the amount of RNA expression of these targets. Inhibition of DENV replication by a test compound result in a shift of Cp's for the 3′UTR gene. On the other hand, if a test compound is toxic to the cells, a similar effect on β-actin expression will be observed. The comparative ΔΔCp method is used to calculate EC50, which is based on the relative gene expression of the target gene (3′UTR) normalized with the cellular housekeeping gene (β-actin). In addition, CC50 values were determined based on the Cp values acquired for the housekeeping gene β-actin.
(§2) The culture medium consisted of minimal essential medium supplemented with 2% of heat-inactivated fetal calf serum, 0.04% gentamycin (50 mg/mL) and 2 mM of L-glutamine. Vero cells, obtained from ECACC, were suspended in culture medium and 75 μL/well was added in 96-well plates (10000 cells/well), which already contain the antiviral compounds. Typically, these plates contain a 4-fold serial dilution of 9 dilution steps of the test compound at 200 times the final concentration in 100% DMSO (500 nL; final concentration range: 25 μM-0.00038 μM). In addition, each plate contains wells which are assigned as virus controls (containing cells and virus in the absence of compound) and cell controls (containing cells in the absence of virus and compound). Once the cells were added in the plates, the plates were incubated in a fully humidified incubator (37° C., 5% CO2) until the next day. Then, DENV-1 strain TC974#666, DENV-2 strain 16681, DENV-3 strain H87 or DENV-4 strains H241 or EDEN were added. […] In parallel, 25 μL of culture medium was added to the cell controls. Next, the plates were incubated for 3 days in a fully humidified incubator (37° C., 5% CO2). After 3 days, the supernatant was removed from the wells and the cells were washed twice with ice-cold PBS (˜100 μL). The cell pellets within the 96-well plates were stored at −80° C. for at least 1 day. Next, RNA was extracted using the Cells-to-CT™ lysis kit, according to the manufacture's guideline (Applied Biosystems). The cell lysates can be stored at −80° C. or immediately used in the reverse transcription step. In preparation of the reverse transcription step, mix A (table 3A) was prepared and 7.57 μL/well was dispensed in a 96-well plate. After addition of 5 μL of the cell lysates, a five minute denaturation step at 75° C. was performed (table 3B). Afterwards, 7.43 μL of mix B was added (table 3C) and the reverse transcription step was initiated (table 3D) to generate cDNA.
(§3) Finally, a RT-qPCR mix was prepared, mix C (table 4A), dispensed in 96-well LightCycler qPCR plates to which 3 μL of cDNA was added and the qPCR was performed according to the conditions in table 4B on a LightCycler 480. Using the LightCycler software and an in-house LIMS system, dose response curves for each compound were calculated and the half maximal effective concentration (EC50) and the half maximal cytotoxic concentration (CO50) were determined (Tables 6-9).

[2] = test system: DENV-3 strain H87; assay: Tetravalent RT-qPCR assay Protocol A, serotype 3; conditions: Dengue virus, DENV3, 72 h, RT-qPCR serotype 3 H87, Vero cells, day 3
Protocol: as §1, §2, §3

[3] = test system: DENV-4 strain H241; assay: Tetravalent RT-qPCR assay Protocol A, serotype 4 H241; conditions: Dengue virus, DENV4, 72 h, RT-qPCR serotype 4 H241, Vero cells, day 3
Protocol: as §1, §2, §3

[4] = test system: DENV-1 strain TC974#666; assay: Tetravalent RT-qPCR assay Protocol A, serotype 1; conditions: Dengue virus, DENV1, 72 h, RT-qPCR serotype 1 TC974#666, Vero cells, day 3
Protocol: as §1, §2, §3

[5] = test system: DENV-1 Djibouti strain D1/H/IMTSSA/98/606; assay: Tetravalent RT-qPCR assay Protocol B, serotype 1; conditions: Dengue virus, DENV1, Vero, 168 h
Protocol: (§4) Vero cells (4×10^4) were seeded in 96-well plates. […] Following a 2 hour incubation period, the cell monolayer was washed 3 times with assay medium to remove residual, non-adsorbed virus and cultures were further incubated for either 4 days (DENV-2 NGC-Tongalike) or 7 days (DENV-1 Djibouti strain D1/H/IMTSSA/98/606, DENV-3 strain H87 prototype, DENV-4 strain H241′) in the presence of the inhibitor. Supernatant was harvested and viral RNA load was determined by real-time quantitative RT-PCR. The 50% effective concentration (EC50), which is defined as the compound concentration that is required to inhibit viral RNA replication by 50%, was determined using logarithmic interpolation (Tables 7 and 8). RNA was isolated from 100 μL supernatant with the NucleoSpin 96 Virus kit (Filter Service, Duren, Germany) as described by the manufacturer. The sequences of the TaqMan primers (DENV-For, DENV-Rev; Table 5) and TaqMan probes (DENV-Probe Table 5) were selected from non-structural gene 3 (NS3) or NS5, of the respective flaviviruses using Primer Express software (version 2.0; Applied Biosystems, Lennik, Belgium). The TaqMan probe was fluorescently labelled with 6-carboxyfluorescein (FAM) at the 5′ end as the reporter dye, and with minor groove binder (MGB) at the 3′ end as the quencher (Table 5). One-step, quantitative RT-PCR was performed in a total volume of 25 μL, containing 13.9375 μL H2O, 6.25 μL master mix (Eurogentec, Seraing, Belgium), 0.375 μL forward primer, 0.375 μL reverse primer, 1 μL probe, 0.0625 μL reverse transcriptase (Eurogentec) and 3 μL sample. RT-PCR was performed using the ABI 7500 Fast Real-Time PCR System (Applied Biosystems, Branchburg, N.J., USA) using the following conditions: 30 min at 48° C. and 10 min at 95° C., followed by 40 cycles of 15 s at 95° C. and 1 min at 60° C. The data was analyzed using the ABI PRISM 7500 SDS software (version 1.3.1; Applied Biosystems). For absolute quantification, standard curves were generated using 10-fold dilutions of template preparations of known concentrations.

[6] = test system: DENV-2 NGC-Tongalike; assay: Tetravalent RT-qPCR assay Protocol B, serotype 2; conditions: Dengue virus, DENV2, Vero, 96 h
Protocol: as §4

| Compound | EC50 [1] [nM] | EC50 [2] [nM] | EC50 [3] [nM] | EC50 [4] [nM] | EC50 [5] [nM] | EC50 [6] [nM] |
| --- | --- | --- | --- | --- | --- | --- |
| COc1cc(NC(C(=O)c2c[nH]c3cc(F)ccc23)c2ccc(F)cc2OC)cc(OCCO)c1 (single isomer, unassigned) [Compound 1A, 1-(6-fluoro-1H-indol-3-yl)-2-(4-fluoro-2-methoxyphenyl)-2-((3-(2-hydroxyethoxy)-5-methoxyphenyl)amino)ethanone] | 3.2 | 120 | 480 | 18 | 40 | 1 |
| COc1cc(NC(C(=O)c2c[nH]c3c(C)c(F)ccc23)c2ccc(F)cc2OC)cc(OCCO)c1 (single isomer, unassigned) [Compound 2B, 2-(4-fluoro-2-methoxyphenyl)-1-(6-fluoro-7-methyl-1H-indol-3-yl)-2-((3-(2-hydroxyethoxy)-5-methoxyphenyl)amino)ethanone] | 2.3 | 110 | 320 | 13 | 41 | 0.81 |
| COc1cc(NC(C(=O)c2c[nH]c3c(C)c(Cl)ccc23)c2ccc(F)cc2OC)cc(OCCO)c1 (single isomer, unassigned) [Compound 3A, 1-(6-chloro-7-methyl-1H-indol-3-yl)-2-(4-fluoro-2-methoxyphenyl)-2-((3-(2-hydroxyethoxy)-5-methoxyphenyl)amino)ethanone] | 0.79 | 88 | 240 | 16 | 45 | < 0.28 |
| COc1cc(NC(C(=O)c2c[nH]c3cc(Cl)ccc23)c2ccc(F)cc2OC)cc(OCCO)c1 (single isomer, unassigned) [Compound 4A, 1-(6-chloro-1H-indol-3-yl)-2-(4-fluoro-2-methoxyphenyl)-2-((3-(2-hydroxyethoxy)-5-methoxyphenyl)amino)ethanone] | 1.6 | 140 | 400 | 20 | 27 | < 0.29 |
| COc1cc(NC(C(=O)c2c[nH]c3c(F)c(F)ccc23)c2ccc(F)cc2OC)cc(OCCO)c1 (single isomer, unassigned) [Compound 5B, 1-(6,7-difluoro-1H-indol-3-yl)-2-(4-fluoro-2-methoxyphenyl)-2-((3-(2-hydroxyethoxy)-5-methoxyphenyl)amino)ethanone] | 3.6 | 190 | 450 | 27 | 65 | 0.44 |
| COc1cc(NC(C(=O)c2c[nH]c3cc(OC)c(C)cc23)c2ccc(F)cc2OC)cc(OCCO)c1 (single isomer, unassigned) [Compound 6A, 2-(4-fluoro-2-methoxyphenyl)-2-((3-(2-hydroxyethoxy)-5-methoxyphenyl)amino)-1-(6-methoxy-5-methyl-1H-indol-3-yl)ethanone] | 1.7 | 130 | 200 | 16 | 21 | < 0.35 |
| COc1cc(NC(C(=O)c2c[nH]c3cc(OC)c(F)cc23)c2ccc(F)cc2OC)cc(OCCO)c1 (single isomer, unassigned) [Compound 7A, 2-(4-fluoro-2-methoxyphenyl)-1-(5-fluoro-6-methoxy-1H-indol-3-yl)-2-((3-(2-hydroxyethoxy)-5-methoxyphenyl)amino)ethanone] | 3.4 | 190 | 470 | 29 | 55 | 1.6 |
| COc1cc(NC(C(=O)c2c[nH]c3c(Cl)c(OC)ccc23)c2ccc(F)cc2OC)cc(OCCO)c1 (single isomer, unassigned) [Compound 8A, 1-(7-chloro-6-methoxy-1H-indol-3-yl)-2-(4-fluoro-2-methoxyphenyl)-2-((3-(2-hydroxyethoxy)-5-methoxyphenyl)amino)ethanone] | 0.9 | 200 | 520 | 32 | 49 | < 0.24 |
| COc1cc(NC(C(=O)c2c[nH]c3c(C)cc(F)cc23)c2ccc(F)cc2OC)cc(OCCO)c1 (single isomer, unassigned) [Compound 9B, 2-(4-fluoro-2-methoxyphenyl)-1-(5-fluoro-7-methyl-1H-indol-3-yl)-2-((3-(2-hydroxyethoxy)-5-methoxyphenyl)amino)ethanone] | 3.2 | 190 | 390 | 19 | 42 | 0.8 |
| COc1cc(NC(C(=O)c2c[nH]c3cc(F)c(F)cc23)c2ccc(F)cc2OC)cc(OCCO)c1 (single isomer, unassigned) [Compound 10B, 1-(5,6-difluoro-1H-indol-3-yl)-2-(4-fluoro-2-methoxy-phenyl)-2-((3-(2-hydroxyethoxy)-5-methoxyphenyl)amino)ethanone] | 3.2 | 130 | 390 | 16 | 52 | 1.6 |
| COc1cc(NC(C(=O)c2c[nH]c3c(C)c(OC)ccc23)c2ccc(F)cc2OC)cc(OCCO)c1 (single isomer, unassigned) [Compound 11A, 2-(4-fluoro-2-methoxyphenyl)-2-((3-(2-hydroxyethoxy)-5-methoxyphenyl)amino)-1-(6-methoxy-7-methyl-1H-indol-3-yl)ethanone] | 0.84 | 85 | 350 | 20 | 23 | 0.68 |
